Key:
[1] = system: non-small cell lung cancer cell line H460; experiment: H460 proliferation assay in the presence of 3 uM ASP9521 (AKR1C3 specific inhibitor); format: cell-based, human; settings: H460 cells, CellTiter-Glo, 72 hours, in the presence of 3 uM ASP9521 added 4 hours prior to compounds; read-out: CTG H460: Avg IC50 (nM) [Assay Condition: ASP9521]
Method in brief: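 H460 cells pre-incubated 24 h, then exposed to compounds for 72 h at 37 °C, 5% CO2. Viability read by CellTiter-Glo. ASP9521 (3 uM, AKR1C3 inhibitor) added 4 h before compounds.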

[2] = system: non-small cell lung cancer cell line H460; experiment: In vitro human cancer cell line cytotoxicity (proliferation) assay in H460, CellTiter-Glo, 72 hours; format: cell-based; settings: DMSO condition (no AKR1C3 inhibitor), read-out: CTG H460: Avg IC50 (nM) [Assay Condition: DMSO]
Method in brief: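 H460 cells were seeded at 3×10^3 per well and grown 24 h at 37 °C, 5% CO2 before compound addition from 10 mM DMSO stocks. After 72 h further incubation, viability was measured by CellTiter-Glo, and IC50 values in nM were derived from the proliferation data.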

[3] = Homo sapiens, NCI-H460, 72 h, H460 cells

For `Cn1cccc(-c2ccc(Oc3c([N+](=O)[O-])ccc4c3CC[C@H]4OP(=O)(N3CC3)N3CC3)cc2)c1=O` [Example 271], the IC50 [1] was 920 nM and the IC50 ([2]; H460 cells) was < 10 nM.
Molecule `O=[N+]([O-])c1ccc2c(c1Oc1ccc(-c3cccnc3)cc1)CC[C@H]2OP(=O)(N1CC1)N1CC1` [Example 272] has an IC50 [1] of 3120 nM and an IC50 ([2]; H460 cells) of 10 to 50 nM.
In the case of `Cn1cc(-c2ccc(Oc3c([N+](=O)[O-])ccc4c3CC[C@H]4OP(=O)(N3CC3)N3CC3)cc2)cn1` [Example 273], the IC50 [1] is reported as 1400 nM and the IC50 ([2]; H460 cells) is reported as < 10 nM.
For `O=[N+]([O-])c1ccc2c(c1Oc1ccc(-c3ccncc3)cc1)CC[C@H]2OP(=O)(N1CC1)N1CC1` [Example 274], the IC50 [1] was 7430 nM and the IC50 ([2]; H460 cells) was 10 to 50 nM.
In the case of `O=[N+]([O-])c1ccc2c(c1Oc1ccc(-c3ccc(F)cn3)c(F)c1)CC[C@@H]2OP(=O)(N1CC1)N1CC1` [Example 275], the IC50 [1] is reported as 1350 nM and the IC50 [2, 3] is reported as < 10 nM.
With `O=[N+]([O-])c1ccc2c(c1Oc1ccc(-c3ccc(F)cn3)cc1)CC[C@H]2OP(=O)(N1CC1)N1CC1` [Example 278] the IC50 [1] was 1560 nM and the IC50 ([2]; H460 cells) was < 10 nM.
With `Cc1cccc(-c2ccc(Oc3c([N+](=O)[O-])ccc4c3CC[C@H]4OP(=O)(N3CC3)N3CC3)cc2)n1` [Example 279] the IC50 [1] was 1310 nM and the IC50 ([2]; H460 cells) was < 10 nM.
In the case of `Cc1noc(-c2ccc(Oc3c([N+](=O)[O-])ccc4c3CC[C@@H]4OP(=O)(N3CC3)N3CC3)cc2)n1` [Example 283], the IC50 [1] is reported as 1460 nM and the IC50 ([2]; H460 cells) is reported as < 10 nM.
`O=[N+]([O-])c1ccc2c(c1Oc1ccc(-c3ncccn3)cc1)CC[C@H]2OP(=O)(N1CC1)N1CC1` [Example 284] was tested, and the IC50 [1] was 1150 nM and the IC50 ([2]; H460 cells) was < 10 nM.
With `Cc1cncc(-c2ccc(Oc3c([N+](=O)[O-])ccc4c3CC[C@H]4OP(=O)(N3CC3)N3CC3)cc2)n1` [Example 285] the IC50 [1] was 754 nM and the IC50 ([2]; H460 cells) was < 10 nM.
For `Cc1nccc(-c2ccc(Oc3c([N+](=O)[O-])ccc4c3CC[C@H]4OP(=O)(N3CC3)N3CC3)cc2)n1` [Example 286], the IC50 [1] was 1870 nM and the IC50 ([2]; H460 cells) was < 10 nM.
`O=[N+]([O-])c1ccc2c(c1Oc1ccc(-c3ccccn3)c(F)c1)CCC2OP(=O)(N1CC1)N1CC1` (stereo not drawn) [Example 287] was tested, and the IC50 [1] was 1010 nM and the IC50 ([2]; H460 cells) was < 10 nM.
With `N#Cc1ccc(-c2ccc(Oc3c([N+](=O)[O-])ccc4c3CCC4OP(=O)(N3CC3)N3CC3)cc2)nc1` (stereo not drawn) [Example 288] the IC50 [1] was 1940 nM and the IC50 ([2]; H460 cells) was < 10 nM.
With `Cc1csc(-c2ccc(Oc3c([N+](=O)[O-])ccc4c3CCC4OP(=O)(N3CC3)N3CC3)cc2)n1` (stereo not drawn) [Example 289] the IC50 [1] was 1090 nM and the IC50 ([2]; H460 cells) was < 10 nM.
For `O=[N+]([O-])c1ccc2c(c1Oc1ccc(-c3ccc(O)cn3)cc1)CC[C@@H]2OP(=O)(N1CC1)N1CC1` [Example 290], the IC50 [1] was 274 nM and the IC50 [2, 3] was < 10 nM.
In the case of `Cc1coc(-c2ccc(Oc3c([N+](=O)[O-])ccc4c3CC[C@@H]4OP(=O)(N3CC3)N3CC3)cc2)n1` [Example 291], the IC50 [1] is reported as 1970 nM and the IC50 [2, 3] is reported as < 10 nM.
`Cc1nsc(-c2cccc(Oc3c([N+](=O)[O-])ccc4c3CC[C@@H]4OP(=O)(N3CC3)N3CC3)c2)n1` [Example 292, (S)-4-(3-(3-methyl-1,2,4-thiadiazol-5-yl)phenoxy)-5-nitro-2,3-dihydro-1H-inden-1-yl di(aziridin-1-yl)phosphinate] was tested, and the IC50 [1] was 1810 nM and the IC50 ([2]; Homo sapiens, NCI-H460, H460 cells) was < 10 nM.
For `COc1ccc(Oc2c([N+](=O)[O-])ccc3c2CC[C@@H]3OP(=O)(N2CC2)N2CC2)cc1-c1ncc(F)cn1` [Example 293, (S)-4-(3-(5-fluoropyrimidin-2-yl)-4-methoxyphenoxy)-5-nitro-2,3-dihydro-1H-inden-1-yl di(aziridin-1-yl)phosphinate], the IC50 [1] was 1050 nM and the IC50 [2, 3] was < 10 nM.
With `COc1ccc(Oc2c([N+](=O)[O-])ccc3c2CC[C@@H]3OP(=O)(N2CC2)N2CC2)cc1-c1ncccn1` [Example 294, (S)-4-(4-methoxy-3-(pyrimidin-2-yl)phenoxy)-5-nitro-2,3-dihydro-1H-inden-1-yl di(aziridin-1-yl)phosphinate] the IC50 [1] was 1080 nM and the IC50 [2, 3] was < 10 nM.
`Cc1cnc(-c2cccc(Oc3c([N+](=O)[O-])ccc4c3CC[C@@H]4OP(=O)(N3CC3)N3CC3)c2)o1` [Example 295, (S)-4-(3-(5-methyloxazol-2-yl)phenoxy)-5-nitro-2,3-dihydro-1H-inden-1-yl di(aziridin-1-yl)phosphinate] gave an IC50 [1] of 3620 nM and an IC50 [2, 3] of 10 to 50 nM.
In the case of `O=[N+]([O-])c1ccc2c(c1Oc1cccc(-c3ccccn3)c1)CC[C@H]2OP(=O)(N1CC1)N1CC1` [Example 296], the IC50 [1] is reported as 976 nM and the IC50 [2, 3] is reported as < 10 nM.
For `O=[N+]([O-])c1ccc2c(c1Oc1cccc(-c3ccccn3)c1)CC[C@@H]2OP(=O)(N1CC1)N1CC1` [Example 297], the IC50 [1] was 1300 nM and the IC50 [2, 3] was < 10 nM.
In the case of `O=[N+]([O-])c1ccc2c(c1Oc1cccc(-c3ccc(F)cc3)c1)CC[C@@H]2OP(=O)(N1CC1)N1CC1` [Example 298], the IC50 [1] is reported as 1690 nM and the IC50 [2, 3] is reported as < 10 nM.
In the case of `Cn1cc(-c2cccc(Oc3c([N+](=O)[O-])ccc4c3CCC4OP(=O)(N3CC3)N3CC3)c2)cn1` (stereo not drawn) [Example 300], the IC50 [1] is reported as 1890 nM and the IC50 ([2]; H460 cells) is reported as < 10 nM.

— US20260167656A1, “PHOSPHORAMIDATE COMPOUNDS AND USES THEREOF” (ALLORION THERAPEUTICS INC, priority 2022, published 2026)
